In publication PMC7395068, “The evolution of strategies to minimise the risk of human drug-induced liver injury (DILI) in drug discovery and development” (Archives of Toxicology, 2020):
Read-outs that look alike come from different tables or passages of the source.

Columns and labels:
[1] = ref Chen 2011; cited from earlier work
hLiMTs [2] = assay: Combined HCI (HCS) and cellular ATP 3D assay in hLiMTs; settings: for AC50 / minimal effective concentration: Homo sapiens
[3] = tested on: primary human hepatocytes, NIH3T3 fibroblasts, BSEP, CYP3A4; settings: cited from earlier work
hLiMTs [4] = settings: cited from earlier work
[5] = cited from earlier work
[6] = cited from earlier work; remark: listed apart in the source
[7] = plasma free fraction; cited from earlier work
HepaRG spheroids = assay: Combined HCI (HCS) and cellular ATP 3D assay in HepaRG spheroids; settings: for AC50 / minimal effective concentration: Homo sapiens
PHH = settings: cited from earlier work
[8] = tested on: THLE or HepG2 cells, isolated mitochondria, BSEP; settings: cited from earlier work
[9] = tested on: HepG2 C3A spheroid, BSEP, Glu/Gal in HepG2 cells, bioactivation; settings: cited from earlier work
[10] = Microtissue model structural based (HCI), combined HCS and ATP, MEC < 25 × Cmax.tot cut-off
[11] = In vitro Assay, ref Schadt 2015
[12] = In vitro Assay, ref Proctor 2017
[13] = Modeled in vitro assays (cytotoxicity, mitochondrial dysfunction, BSEP), ref Aleo et al. 2019

## CS(=O)(=O)CCNCc1ccc(-c2ccc3ncnc(Nc4ccc(OCc5cccc(F)c5)c(Cl)c4)c3c2)o1 [lapatinib]
[1]
  DILI Score (FDA) (1-8): 8
hLiMTs [2]; read-out: ATP endpoint AC50
  AC50: 30.1 µM
hLiMTs [2]; read-out: ATP endpoint MEC
  minimal effective concentration: 12.6 µM
hLiMTs [2]; read-out: HCS endpoint AC50
  AC50: 30.7 µM
hLiMTs [2]; read-out: HCS endpoint MEC
  minimal effective concentration: 1.79 µM
hLiMTs [2]; [10]
  DILI prediction hLiMTs (HCS-MEC): +VE (MEC < 25 × Cmax.tot cut-off)
hLiMTs [2]; hLiMTs, ATP endpoint, cut-off <25x Avg Cmax
  hLiMTs <25x Avg Cmax ATP: +ve
hLiMTs [2]; hLiMTs, ATP endpoint, cut-off <100x Avg Cmaxu
  hLiMTs <100x Avg Cmaxu ATP: -ve
hLiMTs [2]; hLiMTs, HCS endpoints, cut-off <25x Avg Cmax
  hLiMTs <25x Avg Cmax HCS: +ve
hLiMTs [2]; hLiMTs, HCS endpoints, cut-off <100x Avg Cmaxu
  hLiMTs <100x Avg Cmaxu HCS: +ve (<100x Avg Cmaxu)
hLiMTs [2]; hLiMTs, all endpoints (ATP and HCS), cut-off <25x Avg Cmax
  hLiMTs <25x Avg Cmax All: +ve
hLiMTs [2]; hLiMTs, all endpoints, Cmax max used
  hLiMTs Cmax max All: +ve
hLiMTs [2]; hLiMTs, all endpoints, Cmax min used
  hLiMTs Cmax min All: +ve
hLiMTs [2]; hLiMTs, all endpoints, cut-off <10 uM
  hLiMTs <10 uM All: +ve (<10 uM)
hLiMTs [2]; hLiMTs, all endpoints, cut-off <100x Avg Cmaxu
  hLiMTs <100x Avg Cmaxu All: +ve (<100x Avg Cmaxu)
[3]; BSEP & Metabolism based, ref Schadt et al. 2015
  DILI in vitro assay prediction, Schadt (2015): +VE
[3]; [11]
  Cellular toxicity (3T3 cells): +VE
  GSH adduct HML: +VE
  Hepatocyte cellular toxicity: -VE
  MitoTox 3T3: -VE
  TDI CYP3A4: +VE
  hBSEP inhibition: -VE
hLiMTs [4]; [12]
  hLiMTs ATP <100uM: +VE (IC50 threshold of 100 µM)
hLiMTs [4]; hLiMTs, ATP, IC50 threshold 100 µM, ref Proctor et al. 2017
  hLiMTs/100uM, Proctor (2017): +VE (IC50 threshold of 100 µM)
[5]; Chen et al. 2016 or literature alignment, ref Chen et al. 2016
  Assigned DILI category: 3
[5]; ref Aleo 2019
  In vivo DILI: +VE
[5]; ref Proctor 2017
  In vivo DILI: +VE
[5]; ref Schadt 2015
  In vivo DILI: +VE
[5]; ref Williams 2019
  In vivo DILI: +VE
[6]; LTKB DILIrank category, ref Chen et al. 2016
  DILI severity category (Chen et al. [2016]): Most
[6]; human DILI classification, LTKB DILIrank, ref Chen et al. 2016
  DILI severity category (Chen 2016): Most
[6]; human DILI severity, ref Chen et al.
  DILI severity category: Most
[6]; ref Chen 2016
  DILI +VE (5-8), DILI -VE (-4): +VE
  DILI severity category: vMost-DILI-Concern
[7]
  fu: 0.010
HepaRG spheroids; HepaRG, ATP endpoint, cut-off <25x Avg Cmax
  HepaRG <25x Avg Cmax ATP: +ve
HepaRG spheroids; HepaRG, ATP endpoint, cut-off <100x Avg Cmaxu
  HepaRG <100x Avg Cmaxu ATP: +ve (<100x Avg Cmaxu)
HepaRG spheroids; HepaRG, HCS endpoints, cut-off <25x Avg Cmax
  HepaRG <25x Avg Cmax HCS: +ve
HepaRG spheroids; HepaRG, HCS endpoints, cut-off <100x Avg Cmaxu
  HepaRG <100x Avg Cmaxu HCS: +ve (<100x Avg Cmaxu)
HepaRG spheroids; HepaRG, all endpoints (ATP and HCS), cut-off <25x Avg Cmax
  HepaRG <25x Avg Cmax All: +ve
HepaRG spheroids; HepaRG, all endpoints, Cmax max used
  HepaRG Cmax max All: +ve
HepaRG spheroids; HepaRG, all endpoints, Cmax min used
  HepaRG Cmax min All: +ve
HepaRG spheroids; HepaRG, all endpoints, cut-off <10 uM
  HepaRG <10 uM All: +ve (<10 uM)
HepaRG spheroids; HepaRG, all endpoints, cut-off <100x Avg Cmaxu
  HepaRG <100x Avg Cmaxu All: +ve (<100x Avg Cmaxu)
HepaRG spheroids; HepaRG, read-out: ATP endpoint AC50
  AC50: 2.11 µM
HepaRG spheroids; HepaRG, read-out: ATP endpoint MEC
  minimal effective concentration: 1.21 µM
HepaRG spheroids; HepaRG, read-out: HCS endpoint AC50
  AC50: 2.25 µM
HepaRG spheroids; HepaRG, read-out: HCS endpoint MEC
  minimal effective concentration: 0.768 µM
HepaRG spheroids; [10]
  DILI prediction HepaRG spheroids (HCS-MEC): +VE (MEC < 25 × Cmax.tot cut-off)
PHH; 2D PHH, ATP, IC50 threshold 100 µM, ref Proctor et al. 2017
  PHH/100uM, Proctor (2017): +VE (IC50 threshold of 100 µM)
PHH; [12]
  PHH ATP <100uM: +VE (IC50 threshold of 100 µM)
[8]; In vitro Assay, ref Aleo 2019
  Partition Hybrid HRM Score: +VE
  Ro2 Hybrid HRM Score: +VE
[8]; [13]
  Partition Hybrid HRM Score ≥4, Aleo (2019): +VE (Partition Hybrid HRM Score ≥4)
  Partition Hybrid HRM Score ≥8, Aleo (2019): +VE (Partition Hybrid HRM Score ≥8)
  Rule of Two hybrid HRM Score ≥3, Aleo (2019): +VE (Rule of Two hybrid HRM Score ≥3)
  Rule of Two hybrid HRM Score ≥8, Aleo (2019): +VE (Rule of Two hybrid HRM Score ≥8)
[9]; Bayesian modeling, ref Williams et al. 2019
  Bayesian Machine Learning DILI prediction, Williams (2019): +VE
[9]; In vitro Assay, ref Williams 2019
  Bayesian Machine Learning: +VE
